US6334996B1, “Chelators that predominantely form a single stereoisomeric species upon coordination to a metal center” (Resolution Pharmaceuticals Inc., priority 1997, dated 2002)

Legend:
[1] = log D of the metal complexes; format: physicochemical; conditions: ^99mTc complex
[2] = humans; cited from earlier work

Molecule	logD [1]	excreted at 30 minutes [2] [%]
CN(C)CC(=O)N[C@@H](CO)C(=O)N[C@@H](CS)C(=O)NCC(=O)O [^99mTc complex of dimethylglycine-serine-cysteine-glycine, metal not drawn]	-2.3	–
CN(C)CC(=O)N[C@H](C(=O)N[C@@H](CS)C(=O)NCC(=O)O)C(C)(C)C [^99mTc complex of dimethylglycine-t-butylglycine-cysteine-glycine, metal not drawn]	-1.3	–
Tc complex of 2,3-bis(mercaptoacetamide)propanoate [anti isomer of the Tc complex of 2,3-bis(mercaptoacetamide)propanoate (map)]	–	19
Tc complex of 2,3-bis(mercaptoacetamide)propanoate [syn isomer of the Tc complex of 2,3-bis(mercaptoacetamide)propanoate (map)]	–	58
